# Results reported in patent US6329163A, “Assays for detecting β-secretase inhibition” (Elan Pharmaceuticals, Inc., priority 1998, dated 2001).
# Legend:
# [1] = target: T1, β-secretase (Homo sapiens, UniProt P56817); assay: β-secretase assay in the presence of common protease inhibitors (MBP-C125 cleavage, SW-192 ELISA); assay type: biochemical; conditions: for IC50: Max Conc not given
# T1 construct: purified from a natural source, such as human brain tissue or human 293 cells; endogenous in cells
# [2] = system: APP; assay: Proteolytic activity of β-secretase as a function of pH; assay type: biochemical, human
# [3] = target: T1, β-secretase; assay: Binding of substantially purified β-secretase activity to immobilized lectins; conditions: immobilized lectin; Table 2
# Experimental: Glycosylation of β-secretase has been investigated using various immobilized lectins, and ability of substantially purified β-secretase activity to bind to them was determined. […] A "-" sign signifies less than 20% binding, "+" between […] binding, "++" between 50-75% binding, and "+++" >75% binding.
# T1 sequence (P56817 46-501): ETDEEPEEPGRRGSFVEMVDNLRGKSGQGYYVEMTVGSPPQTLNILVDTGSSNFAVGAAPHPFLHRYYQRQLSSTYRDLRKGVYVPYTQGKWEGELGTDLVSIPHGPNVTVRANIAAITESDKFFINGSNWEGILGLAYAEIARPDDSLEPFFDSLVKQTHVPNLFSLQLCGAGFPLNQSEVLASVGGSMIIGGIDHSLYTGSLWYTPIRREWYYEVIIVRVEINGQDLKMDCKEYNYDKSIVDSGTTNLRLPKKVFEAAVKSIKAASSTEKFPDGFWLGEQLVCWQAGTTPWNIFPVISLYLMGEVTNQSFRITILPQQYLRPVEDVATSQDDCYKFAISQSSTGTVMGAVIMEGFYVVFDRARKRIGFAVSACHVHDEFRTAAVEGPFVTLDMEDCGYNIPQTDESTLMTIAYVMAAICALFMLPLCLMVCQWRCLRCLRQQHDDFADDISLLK
Molecule,IC50 ([1]; pH 5.5),inhibition of β-secretase activity (in words) [1],other results
"O=c1oc(Cl)c(Cl)c2ccccc12 [3,4-dichloroisocoumarin]",–,–,"inhibition at 500 µM ([1]; Max Conc 0.5 mM, pH 5.5): < 25%"
CCCCC(NC(=O)C=[N+]=[N-])C(=O)OC (stereo not drawn) [diazoacetylnorleucylmethyl ester],> 5 mM,–,–
c1cnc2c(c1)ccc1ncccc12 [m-phenanthroline],7 mM,also does so,–
c1cnc2c(c1)ccc1cccnc12 [o-phenanthroline],7 mM,inhibits poorly,–
"β-secretase: enzyme which cleaves APP at the amino-terminus of β-amyloid peptide, purified from human 293 cells or human brain",–,–,pH of peak proteolytic activity [2]: 5 to 5.5; proteolytic activity ([2]; pH 7.5 and above): very low activity
"peanut (PNA): lectin (protein, UniProt P02872 24-273, looked up) Galactose-binding lectin: AETVSFNFNSFSEGNPAINFQGDVTVLSNGNIQLTNLNKVNSVGRVLYAMPVRIWSSATGNVASFLTSFSFEMKDIKDYDPADGIIFFIAPEDTQIPAGSIGGGTLGVSDTKGAGHFVGVEFDTYSNSEYNDPPTDHVGIDVNSVDSVKTVPWNSVSGAVVKVTVIYDSSTKTLSVAVTNDNGDITTIAQVVDLKAKLPERVKFGFSASGSLGGRQIHLIRSWSFTSTLITTTRRSIDNNEKKIMNMASA",–,–,β-Secretase Binding [3]: + (between 24-40% binding)
